From PubChem BioAssay (NCI)
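These data come from cells grown in 96-well plates and exposed to compound for 48 hours at five concentrations. TGI denotes the concentration required for complete inhibition of growth.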

Key:
Experiment in all cases: DTP human tumour cell line panel, 48 h
COLO 205 colon = system: COLO 205 colon
DU-145 prostate = system: DU-145 prostate
HCT-15 colon = system: HCT-15 colon
HS 578T breast = system: HS 578T breast
HT29 colon = system: HT29 colon
LOX IMVI melanoma = system: LOX IMVI melanoma
MCF7 breast = system: MCF7 breast
MDA-N = system: MDA-N
MOLT-4 leukemia = system: MOLT-4 leukemia
OVCAR-5 ovarian = system: OVCAR-5 ovarian
PC-3 prostate = system: PC-3 prostate
SF-295 CNS = system: SF-295 CNS
SK-MEL-28 melanoma = system: SK-MEL-28 melanoma
SK-MEL-5 melanoma = system: SK-MEL-5 melanoma
SNB-75 CNS = system: SNB-75 CNS
SR leukemia = system: SR leukemia
U251 CNS = system: U251 CNS
UACC-257 melanoma = system: UACC-257 melanoma
UO-31 renal = system: UO-31 renal

| Compound | TGI (COLO 205 colon) [µM] | TGI (DU-145 prostate) [µM] | TGI (HCT-15 colon) [µM] | TGI (HS 578T breast) [µM] | TGI (HT29 colon) [µM] | TGI (LOX IMVI melanoma) [µM] | TGI (MCF7 breast) [µM] | TGI (MDA-N) [µM] | TGI (MOLT-4 leukemia) [µM] | TGI (OVCAR-5 ovarian) [µM] | TGI (PC-3 prostate) [µM] | TGI (SF-295 CNS) [µM] | TGI (SK-MEL-28 melanoma) [µM] | TGI (SK-MEL-5 melanoma) [µM] | TGI (SNB-75 CNS) [µM] | TGI (SR leukemia) [µM] | TGI (U251 CNS) [µM] | TGI (UACC-257 melanoma) [µM] | TGI (UO-31 renal) [µM] |
| --- | --- | --- | --- | --- | --- | --- | --- | --- | --- | --- | --- | --- | --- | --- | --- | --- | --- | --- | --- |
| COc1ccc([C@H]2C=C(c3cc(F)c(Cl)cc3Cl)NC(=S)N2)cc1 | 48.6 | > 100 | > 100 | > 100 | 80.5 | > 100 | > 100 | 33.2 | > 100 | > 100 | 65.7 | > 100 | > 100 | 27.2 | 66.5 | > 100 | 95.8 | 76.2 | > 100 |
| CCN(CC)CCn1c2cc3c(cc2c(=O)c2cccnc21)OCO3 | > 10 | > 10 | > 10 | > 10 | > 10 | > 10 | > 10 | > 10 | > 10 | > 10 | > 10 | > 10 | > 10 | > 10 | > 10 | > 10 | > 10 | > 10 |  |
| Cc1cc(S(=O)(=O)n2ccnc2Oc2ccccc2)c(SSc2cc(Cl)c(C)cc2S(=O)(=O)n2ccnc2Oc2ccccc2)cc1Cl | > 100 | > 100 | > 100 | 38.6 | > 100 | > 100 | > 100 | > 100 |  | > 100 | > 100 |  | > 100 | > 100 | > 100 | > 100 | > 100 | > 100 | > 100 |
